These results are taken from patent US12522615B2, “Macrocyclic compounds and derivatives as EGFR inhibitors” (Boehringer Ingelheim International GmbH, priority 2019, dated 2026).

SMILES strings stand for the structures. Read-outs that look alike come from different tables or passages of the source. Where only a bound is given, the exact number is not on record here.

The target in one assay is EGFR del19 T790M C797S (Homo sapiens, UniProt P00533, C797S/T790M, form not given). In words: pEGFR assay: phosphorylation of EGFR at Tyr1068 in Ba/F3 cells (AlphaScreen Surefire). Type of assay: cell-based. To be noted: 4 h. The procedure:
Transduced cells were selected using puromycin. Following selection, IL-3 was withdrawn and IL-3 independent cells cultured. p-EGFR Tyr1068 was determined using the AlphaScreen Surefire pEGF Receptor (Tyr1068) Assay (PerkinElmer, TGRERS). […] Subsequently, 60.000 cells/well in 60 μL were added. Cells were incubated with compound for 4 h at 37° C. […] The mixture was incubated at room temperature with shaking (700 rpm) for 20 min. After centrifugation, 4 μL of the lysate were transferred to Proxiplates. […] Plates were shaken for 1 min (1400 rpm) and incubated for 2 h at room temperature in the dark.

The next assay deals with EGFR wt (Homo sapiens (Human), UniProt P00533). Nature of the assay: Biochemical EGFR inhibition assay (poly-GT substrate phosphorylation, TR-FRET LANCE Ultra). The procedure: (§1) Initially, the inhibitory effect of compounds according to the invention is measured in biochemical assays which measure the phosphorylation activity of EGFR enzyme forms on poly-GT substrate in the presence of different concentrations of ATP (5 μM and 100 μM final assay concentration).
(§2) The following enzyme forms of EGFR are representative examples that can be used in these assays at the given concentrations:
(§3) For the chosen highest assay concentration of 100 μM, 150 nL of compound solution is transferred from a 10 mM DMSO compound stock solution. A series of eleven fivefold dilutions per compound is transferred to the assay plate, compound dilutions are tested in duplicates. DMSO is added as backfill to a total volume of 150 nL. The assay runs on a fully automated robotic system.
(§4) 5 μL of EGFR enzyme form in assay buffer (50 mM HEPES pH 7.3, 10 mM MgCl2, 1 mM EGTA, 0.01% Tween 20, 2 mM DTT) are dispensed into columns 1-23, than 5 μL of ATP and ULight-poly-GT substrate (PerkinElmer; TRF0100-M) mix in assay buffer is added to all wells (final assay concentration of the ULight-poly-GT substrate 200 nM). Each of the different EGFR enzyme form assays is available at low ATP (final assay concentration 5 μM) and high ATP levels (final assay concentration 100 μM). After 90 minutes incubation at room temperature 5 μL EDTA (final assay concentration 50 mM) and LANCE Eu-anti-P-Tyr (PT66) antibody (PerkinElmer, AD0069) (final assay concentration 6 nM) mix are added to stop the reaction and start the binding of the antibody. […] Each plate contains 16 wells of a negative control (diluted DMSO instead of test compound; w EGFR enzyme form; column 23) and 16 wells of a positive control (diluted DMSO instead of test compound; w/o EGFR enzyme form; column 24). Negative and positive control values are used for normalization and IC50 values are calculated and analysed using a 4 parametric logistic model.
(§5) These biochemical EGFR enzyme form compound dose-response assays quantify the kinase activity via phosphorylation of a tagged poly-GT substrate. The results of the assay are provided as IC50 values.

Assay [1] has as its target EGFR (mutated) 695-1022, T790M, C797S, L858R (Homo sapiens (Human), UniProt P00533, C797S/L858R/T790M). The description is as above. As to the method: as §1, §2, §3, §4, §5
The test system of assay [2] is Ba/F3 cells driven by EGFR L858R T790M. In words: Ba/F3 proliferation assay (CellTiter-Glo viability). Particulars: Mus musculus, BaF3, 72 h. Type of assay: cell-based, murine. The procedure:
(§6) Plasmids containing EGFR mutants were obtained from GeneScript. To generate EGFR-dependent Ba/F3 models, Ba/F3 cells were transduced with retroviruses containing vectors that harbor EGFR isoforms. Platinum-E cells (Cell Biolabs) were used for retrovirus packaging. Retrovirus was added to Ba/F3 cells. To ensure infection, 4 μg/mL polybrene was added and cells were spinfected. Infection efficiency was confirmed by measuring GFP-positive cells using a cell analyzer. Cells with an infection efficiency of 10% to 20% were further cultivated and puromycin selection with 1 μg/mL was initiated. As a control, parental Ba/F3 cells were used to show selection status. Selection was considered successful when parental Ba/F3 cells cultures died. To evaluate the transforming potential of EGFR mutations, the growth medium was no longer supplemented with IL-3. Ba/F3 cells harboring the empty vector were used as a control. A switch from IL-3 to EGF was performed for Ba/F3 cells with the wildtype EGFR known for its dependency on EGF ligand. Approximately ten days before conducting the experiments, puromycin was left out. For proliferation assays (data in table 13), Ba/F3 cells were seeded into 96-well plates at 5×10^3 cells/100 μL in growth media. Compounds were added by using a HP D3000 Digital Dispenser. All treatments were performed in technical triplicates. Treated cells were incubated for 72 h at 37° C. with 5% CO2. CellTiter-Glo® Luminescent Cell Viability Assay (Promega) was performed and chemoluminescence was measured by using the multilabel Plate Reader VICTOR X4. The raw data were imported into and analyzed with the Boehringer Ingelheim proprietary software MegaLab (curve fitting based on the program PRISM, GraphPad Inc.).

Assay [3] relates to Ba/F3 cells EGFR-indep. + IL-3. Described as above. Type of assay: cell-based, murine. To be noted: Mus musculus, BaF3, 72 h. As to the method: as §6
Assay [4] concerns Ba/F3 cells driven by EGFR del19 C797S. Described as above. Type of assay: cell-based, murine. To be noted: Mus musculus, BaF3, 72 h. As to the method: as §6
Assay [5] concerns Ba/F3 cells driven by EGFR L858R T790M C797S. Described as above. It counts as cell-based, murine. Particulars: Mus musculus, BaF3, 72 h. The procedure:
as §6

Assay [6] deals with Ba/F3 cells driven by EGFR L858R C797S. The description is as above. To be noted: Mus musculus, BaF3, 72 h. It counts as cell-based, murine. As to the method: as §6
Assay [7] deals with Ba/F3 cells driven by EGFR del19. The assay is described as above. Type of assay: cell-based, murine. Particulars: Mus musculus, read-out: IC50 EGFR del19. As to the method: as §6
The subject of assay [8] is Ba/F3 cells driven by EGFR L858R. The assay is described as above. Type of assay: cell-based, murine. Particulars: Mus musculus, BaF3, 72 h. As to the method: as §6
In assay [9] the test system is Ba/F3 cells driven by EGFR del19 T790M. The description is as above. Type of assay: cell-based, murine. To be noted: Mus musculus, BaF3, 72 h. As to the method: as §6
Assay [10] deals with Ba/F3 cells driven by EGFR del19 T790M C797S. Described as above. To be noted: Mus musculus, BaF3, 72 h. It counts as cell-based, murine. As to the method: as §6
Assay [11] has as its system Ba/F3 cells driven by EGFR wt. Described as above. Particulars: Mus musculus, BaF3, 72 h. It counts as cell-based, murine. The procedure: as §6
Assay [12] addresses EGFR (d746-750 T790M C797S) (Homo sapiens (Human), UniProt P00533, C797S/DEL746-750/T790M). Nature of the assay: Biochemical EGFR inhibition assay (poly-GT substrate phosphorylation, TR-FRET LANCE Ultra). Particulars: 5 μM ATP; read-out: Del_TM_CS (5 μM ATP). The procedure: as §1, §2
Test compounds dissolved in DMSO are dispensed onto assay plates (Proxiplate 384 PLUS, white, PerkinElmer; 6008289) using an Access Labcyte Workstation with the Labcyte Echo 55x. […]
5 μL of EGFR enzyme form in assay buffer (50 mM HEPES pH 7.3, 10 mM MgCl2, 1 mM EGTA, 0.01% Tween 20, 2 mM DTT) are dispensed into columns 1-23, than 5 μL of ATP and ULight-poly-GT substrate (PerkinElmer; TRF0100-M) mix in assay buffer is added to all wells (final assay concentration of the ULight-poly-GT substrate 200 nM). […] After additional 60 minutes incubation at room temperature the signal is measured in a PerkinElmer Envision HTS Multilabel Reader using the TR-FRET LANCE Ultra specs of PerkinElmer (used wavelengths: excitation 320 nm, emission 1 665 nm, emission 2 615 nm). […] Negative and positive control values are used for normalization and IC50 values are calculated and analysed using a 4 parametric logistic model. […]

The test system of a further assay is EGFR M+ NSCLC patients. To be noted: EGFR M+ NSCLC patients treated in 1st line; cited from earlier work.
Assay [13] deals with EGFR M+ T790M-positive patients. To be noted: 2nd line, previously treated with earlier generation EGFR TKI; cited from earlier work.
[14] abbreviates: 100 μM ATP, read-out: wt (100 μM ATP).
Setting [15] is: 100 μM ATP, read-out: LR_TM_CS (100 μM ATP).
The mark [16] stands for this setting: 5 μM ATP, read-out: wt (5 μM ATP).
Setting [17] is: 5 μM ATP, read-out: LR_TM_CS (5 μM ATP).

Chain of EGFR (mutated) 695-1022, T790M, C797S, L858R (P00533 695-1022 T790M/C797S/L858R): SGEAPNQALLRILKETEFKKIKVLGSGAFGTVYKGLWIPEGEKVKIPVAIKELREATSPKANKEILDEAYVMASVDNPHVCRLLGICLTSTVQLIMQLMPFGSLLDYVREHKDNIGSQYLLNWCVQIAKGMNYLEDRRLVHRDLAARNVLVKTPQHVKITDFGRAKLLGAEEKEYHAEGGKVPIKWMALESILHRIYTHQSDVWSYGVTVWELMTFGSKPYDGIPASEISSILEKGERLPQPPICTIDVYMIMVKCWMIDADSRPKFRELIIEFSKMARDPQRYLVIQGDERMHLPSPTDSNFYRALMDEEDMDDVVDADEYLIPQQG
Chain of EGFR del19 T790M C797S (P00533 25-1210 T790M/C797S limits assumed, form open): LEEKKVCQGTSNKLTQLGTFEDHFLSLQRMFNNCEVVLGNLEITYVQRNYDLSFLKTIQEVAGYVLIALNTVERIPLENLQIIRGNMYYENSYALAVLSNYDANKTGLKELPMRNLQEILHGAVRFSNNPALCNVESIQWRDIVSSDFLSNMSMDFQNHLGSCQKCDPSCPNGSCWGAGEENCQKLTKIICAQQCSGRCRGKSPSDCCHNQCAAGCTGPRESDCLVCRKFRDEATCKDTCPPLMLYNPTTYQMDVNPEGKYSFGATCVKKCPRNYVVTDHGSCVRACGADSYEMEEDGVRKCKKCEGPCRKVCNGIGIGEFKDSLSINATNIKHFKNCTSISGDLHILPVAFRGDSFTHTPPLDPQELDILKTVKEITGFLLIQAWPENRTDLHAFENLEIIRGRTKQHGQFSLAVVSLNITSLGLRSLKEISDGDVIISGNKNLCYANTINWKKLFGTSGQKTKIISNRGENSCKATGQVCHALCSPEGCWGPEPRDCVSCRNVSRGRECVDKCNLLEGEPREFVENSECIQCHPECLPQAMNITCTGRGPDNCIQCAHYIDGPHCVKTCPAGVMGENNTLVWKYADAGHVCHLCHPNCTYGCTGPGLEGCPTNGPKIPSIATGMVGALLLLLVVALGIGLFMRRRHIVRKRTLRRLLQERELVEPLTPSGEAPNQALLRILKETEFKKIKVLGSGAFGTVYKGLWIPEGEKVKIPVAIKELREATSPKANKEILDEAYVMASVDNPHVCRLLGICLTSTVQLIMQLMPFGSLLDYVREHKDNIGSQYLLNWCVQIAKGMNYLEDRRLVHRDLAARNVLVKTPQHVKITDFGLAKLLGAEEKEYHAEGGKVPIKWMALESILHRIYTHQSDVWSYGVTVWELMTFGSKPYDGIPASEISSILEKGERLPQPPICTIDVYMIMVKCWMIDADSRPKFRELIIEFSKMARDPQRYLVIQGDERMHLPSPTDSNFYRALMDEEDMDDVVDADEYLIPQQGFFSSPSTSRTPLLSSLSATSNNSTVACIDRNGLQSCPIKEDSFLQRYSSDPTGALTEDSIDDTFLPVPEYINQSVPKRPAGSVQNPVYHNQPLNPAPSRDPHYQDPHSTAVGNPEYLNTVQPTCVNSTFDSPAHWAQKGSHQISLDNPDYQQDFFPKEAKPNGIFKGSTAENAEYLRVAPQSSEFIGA
Chain of EGFR wt (P00533 25-1210): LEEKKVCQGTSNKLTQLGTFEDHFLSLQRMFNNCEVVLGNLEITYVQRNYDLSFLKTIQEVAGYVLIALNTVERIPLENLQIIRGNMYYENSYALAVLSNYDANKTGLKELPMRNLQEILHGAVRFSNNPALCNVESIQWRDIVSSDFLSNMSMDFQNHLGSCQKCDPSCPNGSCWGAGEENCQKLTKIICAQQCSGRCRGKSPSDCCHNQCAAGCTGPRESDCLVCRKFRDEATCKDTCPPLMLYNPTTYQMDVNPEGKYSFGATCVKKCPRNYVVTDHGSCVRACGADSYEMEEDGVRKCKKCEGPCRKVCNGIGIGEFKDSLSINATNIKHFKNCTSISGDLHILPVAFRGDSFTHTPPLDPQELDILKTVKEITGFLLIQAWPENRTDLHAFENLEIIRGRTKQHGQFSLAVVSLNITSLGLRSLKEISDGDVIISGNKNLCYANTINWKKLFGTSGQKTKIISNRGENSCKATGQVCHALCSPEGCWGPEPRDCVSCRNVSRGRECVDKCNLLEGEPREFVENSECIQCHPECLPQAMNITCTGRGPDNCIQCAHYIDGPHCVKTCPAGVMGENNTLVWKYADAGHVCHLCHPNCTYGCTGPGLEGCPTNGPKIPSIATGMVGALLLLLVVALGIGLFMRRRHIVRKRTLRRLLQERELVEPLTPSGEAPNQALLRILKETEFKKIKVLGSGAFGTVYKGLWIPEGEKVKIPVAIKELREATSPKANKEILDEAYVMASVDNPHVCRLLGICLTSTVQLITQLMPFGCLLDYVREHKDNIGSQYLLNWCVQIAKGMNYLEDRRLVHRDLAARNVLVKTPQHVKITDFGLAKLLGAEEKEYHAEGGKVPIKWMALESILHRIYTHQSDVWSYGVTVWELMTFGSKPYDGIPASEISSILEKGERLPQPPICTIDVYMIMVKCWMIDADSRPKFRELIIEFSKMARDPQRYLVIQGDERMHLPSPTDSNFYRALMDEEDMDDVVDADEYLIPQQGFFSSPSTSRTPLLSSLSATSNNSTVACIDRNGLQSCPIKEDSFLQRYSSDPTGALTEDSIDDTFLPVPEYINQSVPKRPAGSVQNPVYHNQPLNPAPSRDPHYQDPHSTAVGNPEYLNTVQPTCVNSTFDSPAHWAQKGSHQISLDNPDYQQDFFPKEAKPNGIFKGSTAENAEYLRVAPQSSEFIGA
Chain of EGFR (d746-750 T790M C797S) (P00533 other isoform, or with tags, fused parts or gaps T790M/C797S/del 1-694/del 746-750 limits assumed): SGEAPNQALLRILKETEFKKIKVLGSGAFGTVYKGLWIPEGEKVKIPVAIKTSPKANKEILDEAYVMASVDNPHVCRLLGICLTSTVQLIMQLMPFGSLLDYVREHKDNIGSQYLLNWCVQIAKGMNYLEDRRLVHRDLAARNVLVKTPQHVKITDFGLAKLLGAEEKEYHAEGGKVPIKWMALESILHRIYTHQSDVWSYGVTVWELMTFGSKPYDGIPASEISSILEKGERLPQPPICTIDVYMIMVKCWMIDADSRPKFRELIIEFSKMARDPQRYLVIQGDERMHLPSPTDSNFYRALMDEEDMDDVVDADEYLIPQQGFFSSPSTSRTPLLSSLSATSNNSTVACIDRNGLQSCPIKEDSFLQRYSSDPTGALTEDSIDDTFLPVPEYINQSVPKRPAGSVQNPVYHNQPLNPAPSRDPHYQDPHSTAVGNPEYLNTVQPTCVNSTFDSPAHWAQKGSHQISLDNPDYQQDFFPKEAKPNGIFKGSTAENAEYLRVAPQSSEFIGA

Regarding `Cc1cc2cc(n1)-c1cnn(C)c1OCCCCCN1/C(=N/C2=O)Nc2ccccc21` [Compound I-001], the figures for the IC50 (on EGFR del19 T790M C797S; at EGFR wt (setting [14]); in assay [1] (setting [15])) were 1.2 nM, over 100000 nM and 6 nM, respectively.

As to `Cc1cc2cc(n1)-c1cnn(C)c1OCCC[C@@H](C)CN1/C(=N/C2=O)Nc2ccccc21` [Compound I-003], the values for the IC50 (on EGFR del19 T790M C797S; at EGFR wt (setting [14]); in assay [1] (setting [15])) were 0.8 nM, 900 nM and 3 nM, respectively.

For `Cc1cc2cc(n1)-c1cnn(C)c1OCCC[C@@H](C)CN1/C(=N/C2=O)Nc2ccc(Br)cc21` [Compound I-005], the IC50 was 4 nM against EGFR del19 T790M C797S, over 100000 nM on EGFR wt (setting [14]) and 16 nM in assay [1] (setting [15]).

Turning to `Cc1cc2cc(n1)-c1cnn(C)c1OCCC[C@@H](C)CN1/C(=N/C2=O)Nc2ccc(CN3CCN(C)CC3)cc21` [Compound I-021], the IC50 stood at 0.9 nM in assay [2]; 1100 nM in assay [3]; 0.5 nM in assay [4]; 0.4 nM in assay [5]; 4 nM in assay [6]; 1 nM in assay [7] (BaF3, viability, 72 h). For the same molecule, the IC50 amounted to 7 nM in assay [8], 0.3 nM in assay [9], 0.2 nM in assay [10] and 190 nM in assay [11].

Regarding `Cn1ncc2c1OCCCCCN1/C(=N/C(=O)c3cc(F)nc-2c3)Nc2ccccc21` [Compound I-037], the IC50 in [12] is 0.2 nM; on EGFR del19 T790M C797S, 1.2 nM; on EGFR wt (setting [16]) it was 13 nM; on EGFR wt (setting [14]), over 100000 nM; in [1] (setting [17]) it was 0.3 nM; in [1] (setting [15]) it was 3 nM.

As for `C[C@@H]1CCCOc2ccccc2-c2cc(ccn2)C(=O)N=C2Nc3ccccc3N2C1` [Compound I-046], the IC50 in assay [12] was 1.3 nM; against EGFR del19 T790M C797S it was 4.1 nM; on EGFR wt (setting [16]), 18 nM; on EGFR wt (setting [14]) it was over 100000 nM; in [1] (setting [17]), 1.8 nM; in assay [1] (setting [15]) it was 16 nM.

`CC1(C)CCOc2ccccc2-c2cc(ccn2)C(=O)/N=C2\Nc3ccccc3N2CC1` [Compound I-054] showed an IC50 against EGFR del19 T790M C797S of 25 nM.

For `Cc1cc2cc(n1)-c1cnn(C)c1OCCCCN1/C(=N/C2=O)Nc2ccccc21` [Compound I-055], the IC50 on EGFR del19 T790M C797S stood at 66 nM.

In turn, `Cc1cc2cc(n1)-c1ccc(F)cc1OCCCCCN1/C(=N/C2=O)Nc2ccccc21` [Compound I-056] gave an IC50 at EGFR del19 T790M C797S of 69 nM.

As to `CC(=O)N1CCCCC(n2/c(=N/C(=O)c3ccnc(C)c3)[nH]c3cccc(Cl)c32)C1` (centres unmarked) [Exp. WO 2014/121942, reference compound], the IC50 in [3] is 3500 nM; in assay [5], 2200 nM; in assay [10], 770 nM; in [11] it was 2800 nM.

Turning to `COc1cc2ncnc(Nc3ccc(F)c(Cl)c3)c2cc1NC(=O)/C=C/CN1CCCCC1` [dacomitinib], the IC50 in assay [4] was found to be 1.6 nM; in assay [6], 6.9 nM; in [7] (BaF3, viability, 72 h) it was 0.01 nM; in [8], 0.03 nM; in [11], 0.64 nM.

As to `C#Cc1cccc(Nc2ncnc3cc(OCCOC)c(OCCOC)cc23)c1` [erlotinib], in the assay with EGFR M+ NSCLC patients, the objective response rate is listed as 60-85%.

Regarding `Cc1cc(C(=O)Nc2nc3cccc(Cl)c3n2[C@@H]2CCCCN(C(=O)/C=C/CN(C)C)C2)ccn1` [nazartinib], the IC50 in [3] is over 5000 nM; in [7] (BaF3, viability, 72 h) it was 1.1 nM; in [8], 5.1 nM.

Consider `C=CC(=O)Nc1cc(Nc2nccc(-c3cn(C)c4ccccc34)n2)c(OC)cc1N(C)CCN(C)C` [osimertinib], for which, in assay [7] (BaF3, 72 h), the IC50 turned out to be 0.5 nM. Also, the “patients that respond to treatment” value in assay [13] is on record as “Approximately 70%”. In addition, in the assay with EGFR M+ NSCLC patients, the objective response rate is 60-85%.
